Measured values from ChEMBL document CHEMBL2390905, “Recent development of potent analogues of oxazolidinone antibacterial agents” (Bioorg Med Chem, 2013).
In brackets after ≈: the same amount, converted by molar mass.

Legend:
[1] = system: Staphylococcus epidermidis; assay: Antibacterial activity against Staphylococcus epidermidis assessed as growth inhibition; format: functional
Staphylococcus aureus [2] = assay: Antibacterial activity against methicillin-resistant Staphylococcus aureus assessed as growth inhibition; format: functional
Enterococcus faecalis [3] = assay: Antibacterial activity against Enterococcus faecalis assessed as growth inhibition; format: functional
Staphylococcus aureus [4] = assay: Antibacterial activity against methicillin-resistant Staphylococcus aureus ATCC 33591 assessed as growth inhibition after 16 to 20 hrs by broth microdilution method; format: functional
Staphylococcus aureus [5] = assay: Antibacterial activity against methicillin-sensitive Staphylococcus aureus ATCC 29213 assessed as growth inhibition after 16 to 20 hrs by broth microdilution method; format: functional
Staphylococcus aureus [6] = assay: Antibacterial activity against linezolid-resistant Staphylococcus aureus PTCC 100 assessed as growth inhibition after 16 to 20 hrs by broth microdilution method; format: functional
Enterococcus faecalis [7] = assay: Antibacterial activity against Enterococcus faecalis ATCC 29212 assessed as growth inhibition after 16 to 20 hrs by broth microdilution method; format: functional
Enterococcus faecium [8] = assay: Antibacterial activity against Enterococcus faecium ATCC 700221 assessed as growth inhibition after 16 to 20 hrs by broth microdilution method; format: functional
[9] = biological target: T1, Amine oxidase [flavin-containing] A (Homo sapiens, UniProt P21397); assay: Inhibition of MAO-A (unknown origin) by luciferase […] assay
T1 sequence (P21397 whole entry): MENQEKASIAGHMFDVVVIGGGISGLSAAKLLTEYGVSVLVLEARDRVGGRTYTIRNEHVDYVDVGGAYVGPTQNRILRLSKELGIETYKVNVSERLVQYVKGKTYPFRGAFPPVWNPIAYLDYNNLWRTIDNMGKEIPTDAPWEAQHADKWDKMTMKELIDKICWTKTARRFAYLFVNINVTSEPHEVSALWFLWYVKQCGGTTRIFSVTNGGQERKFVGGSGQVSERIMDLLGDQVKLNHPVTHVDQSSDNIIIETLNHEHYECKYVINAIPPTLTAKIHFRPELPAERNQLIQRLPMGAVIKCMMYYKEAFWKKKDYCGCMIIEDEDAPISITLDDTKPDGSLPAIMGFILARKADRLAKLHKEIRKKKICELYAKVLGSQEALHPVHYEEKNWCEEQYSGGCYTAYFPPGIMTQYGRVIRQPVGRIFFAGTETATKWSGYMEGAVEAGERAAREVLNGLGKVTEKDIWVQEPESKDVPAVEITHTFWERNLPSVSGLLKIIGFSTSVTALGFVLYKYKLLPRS

Staphylococcus aureus [10] = assay: Ratio of tedizolid MIC to compound MIC for methicillin-resistant Staphylococcus aureus; format: functional
Enterococcus [11] = assay: Ratio of tedizolid MIC to compound MIC for Enterococcus spp; format: functional
Staphylococcus aureus [12] = assay: Ratio of linezolid MIC to compound MIC for methicillin-resistant Staphylococcus aureus; format: functional
Enterococcus [13] = assay: Ratio of linezolid MIC to compound MIC for Enterococcus spp; format: functional
Haemophilus influenzae [14] = assay: Ratio of tedizolid MIC to compound MIC for Haemophilus influenzae; format: functional
Streptococcus pneumoniae [15] = assay: Ratio of tedizolid MIC to compound MIC for Streptococcus pneumoniae; format: functional
Haemophilus influenzae [16] = assay: Ratio of linezolid MIC to compound MIC for Haemophilus influenzae; format: functional
Streptococcus pneumoniae [17] = assay: Ratio of linezolid MIC to compound MIC for Streptococcus pneumoniae; format: functional
Staphylococcus aureus [18] = assay: Ratio of linezolid MIC to compound MIC for multidrug-resistant Staphylococcus aureus; format: functional
[19] = system: Staphylococcus epidermidis; assay: Ratio of linezolid MIC to compound MIC for multidrug-resistant Staphylococcus epidermidis; format: functional
Escherichia coli = assay: Ratio of linezolid MIC to compound MIC for Escherichia coli; format: functional
Enterococcus faecalis [20] = assay: Ratio of linezolid MIC to compound MIC for multidrug-resistant Enterococcus faecalis; format: functional
Enterococcus faecium [21] = assay: Ratio of linezolid MIC to compound MIC for multidrug-resistant Enterococcus faecium; format: functional
[22] = system: Mycobacterium tuberculosis; assay: Ratio of mefloquine MIC to compound MIC for Mycobacterium tuberculosis H37Rv; format: functional

## CC(=O)NC[C@H]1CN(c2ccc(N3CCN(C(=O)CCl)CC3)c(F)c2)C(=O)O1
[1]
  MIC: 1 µg/mL (≈ 2.42 µM)
Staphylococcus aureus [2]
  MIC: 1 µg/mL (≈ 2.42 µM)
Enterococcus faecalis [3]
  MIC: 0.5 µg/mL (≈ 1.21 µM)

## CC(=O)NC[C@H]1CN(c2ccc(N3CCN(C(=O)C(Cl)Cl)CC3)c(F)c2)C(=O)O1
[1]
  MIC: 1 µg/mL (≈ 2.24 µM)
Staphylococcus aureus [2]
  MIC: 1 µg/mL (≈ 2.24 µM)
Enterococcus faecalis [3]
  MIC: 0.5 µg/mL (≈ 1.12 µM)

## O=C(/C=C/c1ccccc1)NC[C@H]1CN(c2cc(F)c(N3CCN(C(=O)CNC(=O)c4cn5cccnc5n4)CC3)c(F)c2)C(=O)O1
Staphylococcus aureus [4]
  MIC: 0.125 µg/mL (≈ 0.194 µM)
Staphylococcus aureus [5]
  MIC: 0.125 µg/mL (≈ 0.194 µM)
Staphylococcus aureus [6]
  MIC: 1 µg/mL (≈ 1.55 µM)
Enterococcus faecalis [7]
  MIC: 0.125 µg/mL (≈ 0.194 µM)
Enterococcus faecium [8]
  MIC: 0.25 µg/mL (≈ 0.388 µM)

## CC(=O)NC[C@H]1CN(c2ccc(N3C=NN(C)CC3)c(F)c2)C(=O)O1
[9]
  Ki: 4 µM

## CN1CCN(c2ccc(N3C[C@H](COC(N)=S)OC3=O)cc2F)C=N1
[9]
  Ki: 4 µM

## O=C1O[C@@H](CO)CN1c1ccc(-c2ccc(N3CCOC3=O)nc2)c(F)c1
Staphylococcus aureus [10]
  Ratio: 2
Enterococcus [11]
  Ratio: 2
Staphylococcus aureus [12]
  Ratio: 8
Enterococcus [13]
  Ratio: 8
Haemophilus influenzae [14]
  Ratio: 2
Streptococcus pneumoniae [15]
  Ratio: 2
Haemophilus influenzae [16]
  Ratio: 8
Streptococcus pneumoniae [17]
  Ratio: 8

## CC(=O)NC[C@H]1CN(c2ccc(-c3ccc(C(=O)NN)cc3)c(F)c2)C(=O)O1
Staphylococcus aureus [18]
  Ratio: 2
[19]
  Ratio: 2
Escherichia coli
  Ratio: 2
Enterococcus faecalis [20]
  Ratio: 2
Enterococcus faecium [21]
  Ratio: 2
Haemophilus influenzae [16]
  Ratio: 2

## CCOC(=O)c1cc(COc2cc(C(F)(F)F)nc3c(C(F)(F)F)cccc23)on1
[22]
  Ratio: 14.4

## CC(=O)NC[C@H]1CN(c2ccc(N3CCOCC3)c(F)c2)C(=O)O1 [LINEZOLID]
[9]
  Ki: 7.9 µM

## Cn1nnc(-c2ccc(-c3ccc(N4C[C@H](CO)OC4=O)cc3F)cn2)n1 [TEDIZOLID]
[9]
  Ki: < 2 µM
